Measurements as given in ChEMBL document CHEMBL1133499, “Design, synthesis, and in vitro biological activity of indole-based factor Xa inhibitors” (Bioorg Med Chem Lett, 2000).

How the values were obtained:
[1] = biological target: Coagulation factor X (Homo sapiens, UniProt P00742); experiment: In vitro inhibition of human Coagulation factor X.
[2] = biological target: Prothrombin (Homo sapiens, UniProt P00734); experiment: In vitro inhibition of human Coagulation factor II.

Coagulation factor X, sequence (P00742 41-179 limits assumed): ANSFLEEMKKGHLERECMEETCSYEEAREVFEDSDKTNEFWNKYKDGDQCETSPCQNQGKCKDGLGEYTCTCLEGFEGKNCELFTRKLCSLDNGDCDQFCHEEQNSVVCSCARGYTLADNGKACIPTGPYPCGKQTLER
Coagulation factor X, sequence (P00742 235-488 limits assumed): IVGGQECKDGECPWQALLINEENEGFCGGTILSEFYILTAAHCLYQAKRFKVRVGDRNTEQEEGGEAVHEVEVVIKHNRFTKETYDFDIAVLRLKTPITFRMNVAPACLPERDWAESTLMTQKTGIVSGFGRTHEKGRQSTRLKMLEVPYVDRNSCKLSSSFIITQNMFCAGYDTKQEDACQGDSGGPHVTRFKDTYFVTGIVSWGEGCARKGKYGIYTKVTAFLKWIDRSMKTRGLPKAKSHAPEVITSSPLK

N=C(N)c1cccc(CNc2ccc3ccn(-c4cccc(C(=N)N)c4)c3c2)c1
Ki [1]: 190 nM
Ki [2]: 4000 nM

N=C(N)c1ccc(-n2ccc3ccc(NCc4ccc5ccc(C(=N)N)cc5c4)cc32)cc1
Ki [1]: 30 nM
Ki [2]: 570 nM

N=C(N)c1ccc(-n2ccc3ccc(NCc4cccc(C(=N)N)c4)cc32)cc1
Ki [1]: 340 nM
Ki [2]: 3780 nM

CC(=N)N1CCC(Oc2ccc3cc(C(=O)NC(CC(=O)O)C(=O)O)n(Cc4ccc5ccc(C(=N)N)cc5c4)c3c2)CC1 (configuration not stated)
Ki [1]: 20 nM
Ki [2]: 2350 nM

N=C(N)c1ccc(CNc2ccc3ccn(Cc4ccc(C(=N)N)cc4)c3c2)cc1
Ki [2]: 3530 nM

N=C(N)c1ccc2ccc(Cn3c4ccccc4c4ccc(OC5CCNCC5)cc43)cc2c1
Ki [1]: 4 nM
Ki [2]: 90 nM

N=C(N)c1cccc(Oc2ccc3c4ccccc4n(Cc4ccc5ccc(C(=N)N)cc5c4)c3c2)c1
Ki [1]: 0.9 nM
Ki [2]: 170 nM

CN(C)C(=O)COc1ccc2c3ccccc3n(Cc3ccc4ccc(C(=N)N)cc4c3)c2c1
Ki [1]: 5 nM
Ki [2]: 50 nM

N=C(N)c1ccc(Oc2ccc3c4ccccc4n(Cc4ccc5ccc(C(=N)N)cc5c4)c3c2)cc1
Ki [2]: 210 nM

CC(=N)N1CCC(Oc2ccc3cc(C(=O)O)n(Cc4ccc5ccc(C(=N)N)cc5c4)c3c2)CC1
Ki [1]: 4.6 nM
Ki [2]: 520 nM

COC(=O)c1cc2ccc(OC3CCN(C(C)=N)CC3)cc2n1Cc1ccc2ccc(C(=N)N)cc2c1
Ki [1]: 0.2 nM
Ki [2]: 180 nM

N=C(N)c1ccc(-n2c3ccccc3c3ccc(OCc4ccc5ccc(C(=N)N)cc5c4)cc32)cc1
Ki [1]: 60 nM
Ki [2]: 1990 nM

CC(=N)N1CCC(Oc2ccc3cc(C(=O)N(C)C)n(Cc4ccc5ccc(C(=N)N)cc5c4)c3c2)CC1
Ki [1]: 3.5 nM
Ki [2]: 1050 nM

N=C(N)c1ccc(CNc2ccc3ccn(-c4ccc(C(=N)N)cc4)c3c2)cc1
Ki [1]: 840 nM
Ki [2]: 4530 nM

N=C(N)c1ccc(-n2ccc3ccc(NC(=O)c4cccc(C(=N)N)c4)cc32)cc1
Ki [1]: 160 nM
Ki [2]: 2320 nM

CC(=N)N1CCC(Oc2ccc3c4ccccc4n(Cc4ccc5ccc(C(=N)N)cc5c4)c3c2)CC1
Ki [1]: 1.6 nM
Ki [2]: 40 nM

CCOC(=O)c1cc2ccc(OC3CCN(C(C)=N)CC3)cc2n1Cc1ccc2ccc(C(=N)N)cc2c1
Ki [1]: 0.6 nM
Ki [2]: 360 nM
